Measured values from US20230373962A1, “SUPRAMOLECULAR MOLECULES FOR THE TREATMENT OF CANCER” (The University of Birmingham, priority 2020, published 2023).

Experiment: Solubility
Assay type: physicochemical
Conditions: CB[10] alone

- solubility: insoluble
SMILES: O=C1N2CN3C(=O)N4CN5C(=O)N6CN7C(=O)N8CN9C(=O)N%10CN%11C(=O)N%12CN%13C(=O)N%14CN%15C(=O)N%16CN%17C(=O)N%18CN%19C(=O)N%20CN1C1C2N2CN%21C(=O)N(CN%22C(=O)N(CN%23C(=O)N(CN%24C(=O)N(CN%25C(=O)N(CN%26C(=O)N(CN%27C(=O)N(CN%28C(=O)N(CN%29C(=O)N(CN1C2=O)C%20C%19%29)C%18C%17%28)C%16C%15%27)C%14C%13%26)C%12C%11%25)C%10C9%24)C8C7%23)C6C5%22)C4C3%21 (stereo not shown) [CB[10], cucurbit[10]uril]
